Measured values from article PMC12140300, “Development of Carbon‐11 Labeled Pyrimidine Derivatives as Novel Positron Emission Tomography (PET) Agents Enabling Brain Sigma‐1 Receptor Imaging” (Advanced Science, 2025).

Test system: σ1R
Experiment: NHP PET/MR imaging with kinetic modelling, baseline and self-blocking
Format: in vivo
Conditions: for VT, Logan graphical method [T* = 40 min] / VT, Two tissue compartment model [2TCM] / VT, One tissue compartment model [1TCM]: male NHP brain
Source text: Next, we conducted PET/MR imaging studies using [^11C]CNY‐01 in non‐human primates (NHP) to evaluate its safety and translational potential in large animals further. A 90‐minute dynamic PET scan with [^11C]CNY‐01 focusing on the head of a male rhesus monkey. We performed a full kinetic analysis with one‐ and two‐tissue compartment models (1TCM and 2TCM), as well as logan graphical analysis (LGA), using metabolite‐corrected arterial input function (AIF), similar to previous studies,^[ [44], [45] ^] to determine which model best suit kinetics of [^11C]CNY‐01. In most brain regions, 2TCM provided a better fit than 1TCM, as indicated by the Akaike information criterion (AIC) and model selection criterion (MSC) (Table 1). […] To test whether non‐parametric graphical approaches can be used for [^11C]CNY‐01, we performed LGA with an assumption of steady‐state time (T*) of 40 mins (Table 1). […] For voxel‐wise estimation of VT across the whole brain, we then used LGA (Figure 4A).
We also performed a self‐blocking scan for [^11C]CNY‐01, administering 0.5 mg kg^−1 of unlabeled CNY‐01 10 min before the radiotracer. The metabolism of the radiotracer in the blocking scan was similar to that of the baseline (Figure S6, Supporting Information). The radioactivity concentration was lower in arterial blood samples in the blocking scan compared to the baseline, while brain uptake was higher in the blocking scan (Figure S6, Supporting Information). […] The variation of the radiotracer plasma protein binding (fp) between baseline and blocking scan may explain our observation in a way similar to that of the previous study.^[ [46] ^] Nonetheless, due to this study's lack of fp data, the exact explanation for our observation remains to be determined further.
The PET/MR imaging protocol in non‐human primates (NHP) followed our previous work.^[ [55], [56] ^] A male rhesus macaque (8.55 kg) was anesthetized with an intramuscular injection of xylazine (0.5–2.0 mg kg^−1) and ketamine (10 mg kg^−1), followed by endotracheal intubation. V‐ and A‐lines were inserted, and anesthesia was maintained using isoflurane. [^11C] CNY‐01 was administered after antecubital catheterization, with an arterial line prepared for radiometabolite analysis. In the self‐blocking scan, the same animal (6.80 kg) was scanned with a 10‐min pre‐treatment of 0.5 mg kg^−1 unlabeled CNY‐01. PET/MR imaging data were acquired using a Siemens TIM‐Trio scanner (3T) equipped with a Siemens BrainPET insert module and an in‐house‐built 8‐channel head coil. The dynamic scan began, followed by administration of [^11C] CNY‐01 (5.1 mCi). The list mode data were reconstructed using the 3D ordinary Poisson expectation‐maximization algorithm (16 subsets and 6 iterations) with detector efficiency, decay, dead time, random coincidences, scatter, and attenuation corrections with gradually increasing time frams. All images were reconstructed into 153 slices with 256 × 256 pixels and 1.25‐mm isotropic voxel size. High‐resolution structural MRI scans were acquired by using a multi‐echo magnetization‐prepared rapid gradient echo (ME‐MPRAGE) sequence with parameters as follows: TR = 2400 ms; TE1/TE2/TE3/TE4 = 1.57/3.29/5.01/6.73 ms; inversion time = 1200 ms; flip angle = 9°; spatial resolution = 1 mm isotropic.
For macaque brain PET/MR imaging analysis, we applied the INIA19 Template^[ [57] ^] and NeuroMaps Atlas in accordance with our prior work.^[ [58] ^] In brief, reconstructed PET images were registered to the INIA19 Primate Brain Atlas^[ [57] ^] with the following processing steps^[ [59] ^]: The high‐resolution T1‐weighted MR image, co‐registered with the PET image, was first affine‐registered to the INIA19 atlas. By using the same transformation, dynamic PET data was registered to the atlas. A spatial smoothing with a 6‐mm FWHM Gaussian kernel was applied to PET images. Twenty ROIs determined in the INIA19 atlas were used to derive regional TACs. […]

[1] = ACC, 10-min pretreatment of unlabeled CNY-01 (0.5 mg kg^−1)
[2] = Amygdala, 10-min pretreatment of unlabeled CNY-01 (0.5 mg kg^−1)
[3] = CBL, 10-min pretreatment of unlabeled CNY-01 (0.5 mg kg^−1)
[4] = Caudate, 10-min pretreatment of unlabeled CNY-01 (0.5 mg kg^−1)
[5] = Globus-pallidus, 10-min pretreatment of unlabeled CNY-01 (0.5 mg kg^−1)
[6] = Hippocampus, 10-min pretreatment of unlabeled CNY-01 (0.5 mg kg^−1)
[7] = Hypothalamus, 10-min pretreatment of unlabeled CNY-01 (0.5 mg kg^−1)
[8] = Ifc, 10-min pretreatment of unlabeled CNY-01 (0.5 mg kg^−1)
[9] = Insula, 10-min pretreatment of unlabeled CNY-01 (0.5 mg kg^−1)
[10] = Midbrain, 10-min pretreatment of unlabeled CNY-01 (0.5 mg kg^−1)
[11] = Motor, 10-min pretreatment of unlabeled CNY-01 (0.5 mg kg^−1)

Cc1nc(-c2ccc(O[11CH3])cc2)nc(OCCCN2CCCCC2)c1Cl [[^11C]CNY-01]
VT in blocking scan compared to baseline (0.5 mg kg^−1 unlabeled CNY-01 10 min before the radiotracer, NHP): higher VT across the brain
VT, Logan graphical method [T* = 40 min] [1]: 29.37 ml/cm^3
VT, Two tissue compartment model [2TCM] [1]: 25.84 ml/cm^3
VT, Logan graphical method [T* = 40 min] (ACC, baseline): 13.32 mL cm^−3
VT, One tissue compartment model [1TCM] (ACC, baseline): 9.76 mL cm^−3
VT, Two tissue compartment model [2TCM] (ACC, baseline): 15.87 mL cm^−3
VT, Logan graphical method [T* = 40 min] [2]: 34.47 ml/cm^3
VT, Two tissue compartment model [2TCM] [2]: 29.18 ml/cm^3
VT, Logan graphical method [T* = 40 min] (Amygdala, baseline): 14.75 mL cm^−3
VT, One tissue compartment model [1TCM] (Amygdala, baseline): 10.83 mL cm^−3
VT, Two tissue compartment model [2TCM] (Amygdala, baseline): 13.78 mL cm^−3
VT, Logan graphical method [T* = 40 min] [3]: 21.96 ml/cm^3
VT, Two tissue compartment model [2TCM] [3]: 18.25 ml/cm^3
VT, Logan graphical method [T* = 40 min] (CBL, baseline): 11.65 mL cm^−3
VT, One tissue compartment model [1TCM] (CBL, baseline): 8.96 mL cm^−3
VT, Two tissue compartment model [2TCM] (CBL, baseline): 11.68 mL cm^−3
VT, Logan graphical method [T* = 40 min] [4]: 28.10 ml/cm^3
VT, Two tissue compartment model [2TCM] [4]: 24.46 ml/cm^3
VT, Logan graphical method [T* = 40 min] (Caudate, baseline): 12.71 mL cm^−3
VT, One tissue compartment model [1TCM] (Caudate, baseline): 9.58 mL cm^−3
VT, Two tissue compartment model [2TCM] (Caudate, baseline): 14.24 mL cm^−3
VT, Logan graphical method [T* = 40 min] [5]: 33.31 ml/cm^3
VT, Two tissue compartment model [2TCM] [5]: 26.67 ml/cm^3
VT, Logan graphical method [T* = 40 min] (Globus-pallidus, baseline): 15.11 mL cm^−3
VT, One tissue compartment model [1TCM] (Globus-pallidus, baseline): 11.32 mL cm^−3
VT, Two tissue compartment model [2TCM] (Globus-pallidus, baseline): 14.90 mL cm^−3
VT, Logan graphical method [T* = 40 min] [6]: 24.15 ml/cm^3
VT, Two tissue compartment model [2TCM] [6]: 18.46 ml/cm^3
VT, Logan graphical method [T* = 40 min] (Hippocampus, baseline): 10.31 mL cm^−3
VT, One tissue compartment model [1TCM] (Hippocampus, baseline): 8.04 mL cm^−3
VT, Two tissue compartment model [2TCM] (Hippocampus, baseline): 10.36 mL cm^−3
VT, Logan graphical method [T* = 40 min] [7]: 24.54 ml/cm^3
VT, Two tissue compartment model [2TCM] [7]: 18.97 ml/cm^3
VT, Logan graphical method [T* = 40 min] (Hypothalamus, baseline): 11.42 mL cm^−3
VT, One tissue compartment model [1TCM] (Hypothalamus, baseline): 8.36 mL cm^−3
VT, Two tissue compartment model [2TCM] (Hypothalamus, baseline): 10.60 mL cm^−3
VT, Logan graphical method [T* = 40 min] [8]: 20.73 ml/cm^3
VT, Two tissue compartment model [2TCM] [8]: 18.09 ml/cm^3
VT, Logan graphical method [T* = 40 min] (Ifc, baseline): 9.62 mL cm^−3
VT, One tissue compartment model [1TCM] (Ifc, baseline): 7.36 mL cm^−3
VT, Two tissue compartment model [2TCM] (Ifc, baseline): 10.89 mL cm^−3
VT, Logan graphical method [T* = 40 min] [9]: 31.86 ml/cm^3
VT, Two tissue compartment model [2TCM] [9]: 26.77 ml/cm^3
VT, Logan graphical method [T* = 40 min] (Insula, baseline): 14.70 mL cm^−3
VT, One tissue compartment model [1TCM] (Insula, baseline): 11.17 mL cm^−3
VT, Two tissue compartment model [2TCM] (Insula, baseline): 13.96 mL cm^−3
VT, Logan graphical method [T* = 40 min] [10]: 34.11 ml/cm^3
VT, Two tissue compartment model [2TCM] [10]: 25.70 ml/cm^3
VT, Logan graphical method [T* = 40 min] (Midbrain, baseline): 13.39 mL cm^−3
VT, One tissue compartment model [1TCM] (Midbrain, baseline): 11.03 mL cm^−3
VT, Two tissue compartment model [2TCM] (Midbrain, baseline): 14.71 mL cm^−3
VT, Logan graphical method [T* = 40 min] [11]: 21.53 ml/cm^3
VT, Two tissue compartment model [2TCM] [11]: 16.66 ml/cm^3
VT, Logan graphical method [T* = 40 min] (Motor, baseline): 9.39 mL cm^−3
